Reference: patent publication US20230287389A1, “A METHOD FOR GENERATING NEW MUTATION IN ORGANISM AND USE THEREOF” (Qingdao Kingagroot Chemical Compound Co., Ltd., priority 2019, published 2023)

Tests used:
[1] = tested on: T1 generation OsALS W548 site and OsSWEET14 double-site edited seedlings; assay: Resistance test of T1 generation OsALS W548L edited seedlings to ALS inhibitor herbicides; assay type: in vivo, Oryza sativa; settings: for Resistance of OsALS W548L mutant strain: field concentrations
Description: After the propagation of TO strains in which the occurrence of OsALS W548L mutation was detected, the T1 generation mutant seedling strains were tested for herbicide resistance with pyroxsulam, imazapic, nicosulfuron and flucarbazone-Na at field concentrations.

[2] = tested on: T1 generation OsACCase2 W2038L edited seedlings; assay: Resistance test of T1 generation OsACCase2 W2038L edited seedlings to ACCase inhibitor herbicides; assay type: in vivo, Oryza sativa; settings: for Resistance of OsACCase2 W2038L mutant strain: field concentrations
Description: After the propagation of the TO strain containing the W2038L mutation, the T1 generation mutant seedlings were tested for herbicide resistance with quizalofop-p and haloxyfop-p in field concentrations.

Arabidopsis thaliana = assay: Selection of Arabidopsis thaliana seedlings on imazapic medium; assay type: in vivo
Description: After the seeds of the T1 strain were harvested from single plant, the seeds of different strains of two vectors were selected and spread on the imazapic selection medium (MS medium+0.24 μg/mL imazapic) to perform selection, and the positive seedlings were transplanted to the soil one week later and subjected to molecular detection, in which the method was the same as step 5.

COc1cc(OC)nc(NC(=O)NS(=O)(=O)c2ncccc2C(=O)N(C)C)n1 [nicosulfuron]
Resistance of W548L edited strain QY360-7-11 ([1]; 4 g/mu active ingredient of nicosulfuron): developed resistance
Resistance of OsALS W548L mutant strain [1]: significant resistance

COc1nn(C(=O)[N-]S(=O)(=O)c2ccccc2OC(F)(F)F)c(=O)n1C.[Na+] [flucarbazone-Na]
Resistance of W548L edited strain QY360-7-9 ([1]; 2 g/mu active ingredient of flucarbazone-Na): developed resistance
Resistance of OsALS W548L mutant strain [1]: significant resistance

C[C@@H](Oc1ccc(Oc2ncc(C(F)(F)F)cc2Cl)cc1)C(=O)O [Haloxyfop-p]
Resistance of W2038L edited strains QY367-7-12 and QY367-7-18 ([2]; 5 g/mu active ingredient of Haloxyfop-p): developed resistance
Resistance of OsACCase2 W2038L mutant strain [2]: significantly resistant

Cc1cnc(C2=NC(=O)C(C)(C(C)C)N2)c(C(=O)O)c1 (stereo not drawn) [imazapic]
Response of W574M edited T1 plant to imazapic treatment (Arabidopsis thaliana; Example 3): showed resistance
Growth of wild-type Col-0 on imazapic resistant medium (Arabidopsis thaliana; MS medium + 0.24 μg/mL imazapic): could not grow
Growth of positive plants of the mutant strains on imazapic resistant medium (Arabidopsis thaliana; MS medium + 0.24 μg/mL imazapic, T2): could grow normally
Resistance of W548L edited strain QY360-7-11 ([1]; 7 g/mu active ingredient of imazapic): developed resistance
Resistance of OsALS W548L mutant strain [1]: significant resistance

C[C@@H](Oc1ccc(Oc2cnc3cc(Cl)ccc3n2)cc1)C(=O)O [quizalofop-p]
Resistance of W2038L edited strains QY367-5-10 and QY367-5-21 ([2]; 5 g/mu active ingredient of quizalofop-p): developed resistance
Resistance of OsACCase2 W2038L mutant strain [2]: significantly resistant

COc1cc(OC)n2nc(NS(=O)(=O)c3c(C(F)(F)F)ccnc3OC)nc2n1 [pyroxsulam]
Resistance of W548L edited strains QY360-7-2 and QY360-7-11 ([1]; 2 g/mu active ingredient of pyroxsulam): developed resistance
Resistance of OsALS W548L mutant strain [1]: significant resistance
